Columns and labels:
TGFBR3 [1] = experiment: RT-qPCR expression of aging-related gene TGFBR3 in HEKa; assay type: cell-based, human; settings: 0.01 mg/mL, 24 h
Protocol: (§1) Then, cells were lysed, and RNA was extracted (RNeasy mini kit, Qiagen). Purified RNAs were retro-transcribed (High-capacity cDNA reverse transcription kit, Applied Biosystems). RT-qPCR was performed with the panel of TaqMan assay probes (Thermo Fisher Scientific) using StepOne plus Real time PCR instrument. […] The obtained data were analyzed using the ΔΔCt method, which provides the target gene expression values as fold changes in the treated sample compared with an untreated basal sample. Both samples were normalized with the relative expression of the housekeeping gene GAPDH.

ITGB1 [2] = experiment: RT-qPCR expression of aging-related gene ITGB1 in HEKa; assay type: cell-based, human; settings: 0.01 mg/mL, 24 h
Protocol: as §1

ITGA5 [3] = experiment: RT-qPCR expression of aging-related gene ITGA5 in HEKa; assay type: cell-based, human; settings: 0.01 mg/mL, 24 h
Protocol: as §1

ITGA5 [4] = experiment: RT-qPCR expression of aging-related gene ITGA5 in HDFa; assay type: cell-based, human; settings: 0.05 mg/mL, 6 h
Protocol: as §1

ITGB1 [5] = experiment: RT-qPCR expression of aging-related gene ITGB1 in HDFa; assay type: cell-based, human; settings: 0.05 mg/mL, 6 h
Protocol: as §1

TGFBR3 [6] = experiment: RT-qPCR expression of aging-related gene TGFBR3 in HDFa; assay type: cell-based, human; settings: 0.05 mg/mL, 6 h
Protocol: as §1

calreticulin (CALR) = experiment: Calreticulin immunofluorescence quantification in HEKa; assay type: cell-based, human; settings: 0.005 mg/mL, 24 h
Protocol: The effect of the cycled peptide on the expression of calreticulin (CALR) in human epidermal keratinocytes from adult (HEKa) was analyzed through fluorescence microscopy evaluation.
HEKa cells were cultured on coverslips in Dermal Cell Basal Medium (DCBM) at a density of 50.000 cell/well and incubated at 37 °C in a humidified atmosphere with 5% CO2. When cell confluence was around 80%, cells were treated with cycled peptide B at 0.005 mg/mL for 24 h. After treatment, samples were washed twice with PBS, fixed with 4% formaldehyde and permeabilized with Triton X-100 0.2%. Next, samples were blocked for 1 hour with PBS/BSA 5%, in order to avoid nonspecific antibody binding. […]
Images were analyzed using Image J software. Shortly, threshold was adjusted to select CALR staining and mean fluorescent was measured. The number of cells was counted using the DAPI staining. […] Finally, all data was normalized as follows to obtain the % of CALR compared to untreated cells (Basal): % vs Basal = (fluorescence per cell in treated samples)/(fluorescence per cell in untreated samples) × 100 [formula]
Statistical data analysis was performed using Student t-test by comparison of % fluorescence from peptide B treated samples vs. untreated samples, (*, p < 0.05; **, p < 0.01 and ***, p < 0.001).

[7] = system: human immunoglobulin binding protein (BiP); experiment: BiP ELISA in HEKa cell lysates; assay type: cell-based; settings: 24 hours
Protocol: The effect of cycled peptides was determined on the production of human immunoglobulin binding protein (BiP) in human epidermal keratinocytes from adult (HEKa), through quantification of this protein in vitro in cell culture lysates by enzyme linked immunosorbent assay (ELISA).
In this study the BiP levels in human epidermal keratinocytes treated with cycled peptide B was evaluated, through quantification of this protein in vitro in cell culture lysates by enzyme linked immunosorbent assay (ELISA).
HEKa cells were seeded in a 24-well plate at a density of 50.000 cells/well and maintained at standard culture conditions (Supplemented Dermal Cell Basal Medium, DCBM; 37°C, 95% RH, 5% CO2) for 24 hours. Then, keratinocytes were treated for 24 hours with or without the presence of 0.01 or 0.05 mg/mL of cycled peptide A or peptide B. After treatment, cells were lysed with RIPA buffer and lysates were collected and centrifuged in order to eliminate cell debris and were kept at -80°C until they were used for BiP quantification with BiP ELISA Kit according to manufacturer instructions. In order to normalize data, total protein content of each sample was quantified through Micro BCA Protein Assay kit according to manufacturer instructions.
Each condition was performed at least in triplicate (n=3) in three independent experiments (N=3). For all data, mean values of the different experiments and SEM values are shown. All data was first normalized as follows: BiP levels/cell = (BiP levels per well)/(Total protein (BCA) per well) [formula] % vs Basal = (BiP per cell in treated samples)/(Bip per cell in untreated samples) × 100 [formula]
Statistical data analysis was performed using Student t-test by comparison of % BiP expression from cells untreated (Basal) vs. treated with cycled peptide samples, *p<0.05, **p<0.01, ***p<0.001.

TGFβ3 = experiment: qPCR TGFβ3 expression in HDF treated with conditioned media from peptide-treated keratinocytes; assay type: cell-based, human
Protocol: For TGFβ3 gene expression assessment, HEKa cells were seeded in 24-well plate at a density of […] and incubated at 37 °C in a humidified atmosphere with 5% CO2. Next day, cell culture media was replaced by fresh media containing 0.0025 or 0.01 mg/mL of cycled peptide B. In parallel, HDF cells were seeded on culture plates with or without coverslips (for immunofluorescence or qPCR, respectively) and incubated for 24 h.
Conditioned media from HEKa cells after 48 hours of treatment was then transferred to HDF culture plates. Cells were maintained in culture for additional 24h (for qPCR) or for 4 days (for collagen I immunostaining).
For qPCR, cells were lysed, RNA extracted, and gene expression for TGFβ3 target was obtained as indicated in the previous examples.

CALR = experiment: RT-qPCR expression of CALR gene in HEKa; settings: 0.01 mg/mL
Protocol: HEKa cells were incubated in the presence of 0.01 mg/mL cycled peptide B for 24 hours and HDFa cells were treated with 0.05 mg/mL of cycled peptide B for 6 h. Then, cells were lysed, and RNA was extracted (RNeasy mini kit, Qiagen). Purified RNAs were retro-transcribed (High-capacity cDNA reverse transcription kit, Applied Biosystems). RT-qPCR was performed with the panel of TaqMan assay probes (Thermo Fisher Scientific) using StepOne plus Real time PCR instrument. […] The obtained data were analyzed using the ΔΔCt method, which provides the target gene expression values as fold changes in the treated sample compared with an untreated basal sample. Both samples were normalized with the relative expression of the housekeeping gene GAPDH.
Additionally, expression of CALR after treatment with 0.01 mg/mL of cycled peptides A and B for 24 hours in HEKa cells was analyze by qPCR as described in example 3.

Fold change vs. Basal (TGFBR3 [1]): 1.23
Fold change vs. Basal (ITGB1 [2]): 1.65
Fold change vs. Basal (ITGA5 [3]): 1.84
Fold change vs. Basal (ITGA5 [4]): 1.31
Fold change vs. Basal (ITGB1 [5]): 1.66
Fold change vs. Basal (TGFBR3 [6]): 1.74
expression of TGFβ3 over the basal expression in keratinocyte conditioned media (KCM) (TGFβ3; 24 h with conditioned media from HEKa treated 48 hours with 0.0025 mg/mL): 1.35 fold
expression of TGFβ3 over the basal expression in keratinocyte conditioned media (KCM) (TGFβ3; 24 h with conditioned media from HEKa treated 48 hours with 0.01 mg/mL): 1.60 fold
CALR expression, Ratio (CALR; 24 hours, qPCR (Table 5), Basal = 1.00): 1.78
Fold change vs. Basal (CALR; CALR, 24 h (Table 3)): 2.67
Structure (SMILES): CC(C)C[C@@H]1NC(=O)[C@H](C)NC(=O)[C@H](Cc2c[nH]cn2)NC(=O)[C@H](Cc2c[nH]c3ccccc23)NC(=O)[C@H](Cc2ccccc2)NC(=O)[C@H](CCCNC(=N)N)NC1=O [Peptide B, cyclo-Phe-Trp- His- Ala-Leu-Arg]
Mean normalized expression (TGFBR3 [1]; normalized to GAPDH): 2.54E-02
Mean normalized expression (ITGB1 [2]; normalized to GAPDH): 7.16E-01
Mean normalized expression (ITGA5 [3]; normalized to GAPDH): 1.15E-01
Mean normalized expression (ITGA5 [4]; normalized to GAPDH): 2.57E-01
Mean normalized expression (ITGB1 [5]; normalized to GAPDH): 1.02E+00
Mean normalized expression (TGFBR3 [6]; normalized to GAPDH): 8.00E-03
% Mean (CALR fluorescence per cell, % vs Basal) (calreticulin (CALR)): 179.45%
increased CALR levels when compared with untreated cells (calreticulin (CALR)): up to 79%
% Mean (BiP per cell, % vs Basal) ([7]; 0.01 mg/mL): 110.18%
% Mean (BiP per cell, % vs Basal) ([7]; 0.05 mg/mL): 123.74%
increase of BiP levels, increment when compared with untreated cells (Basal) ([7]; concentration dependent): up to 24%
CALR expression, Effect (CALR; 24 hours, qPCR (Table 5)): Upregulation
Mean normalized expression (CALR; CALR, 24 h, normalized to GAPDH): 6.83E-01

Source: patent publication EP4417190A1, “CYCLIC PEPTIDES WITH ANTI-AGING EFFICACY” (Lipotrue, S.L., priority 2023, dated 2024)
